Source: patent US11028089B2, “Pyrimido-diazepinone kinase scaffold compounds and methods of treating DCLK1/2-mediated disorders” (DANA-FARBER CANCER INSTITUTE, INC., priority 2016, dated 2021)

Biological target: T1, recombinant DCLK1 (Homo sapiens, UniProt O15075)
T1 construct: N-terminally 6-His tagged human DCLK1 residues G351-H689 was prepared; 6-His (N); made in house; host or cells: E. coli BL21(DE3), co-transformed with lambda phosphatase
T1 sequence (O15075 351-689 isoform O15075-2): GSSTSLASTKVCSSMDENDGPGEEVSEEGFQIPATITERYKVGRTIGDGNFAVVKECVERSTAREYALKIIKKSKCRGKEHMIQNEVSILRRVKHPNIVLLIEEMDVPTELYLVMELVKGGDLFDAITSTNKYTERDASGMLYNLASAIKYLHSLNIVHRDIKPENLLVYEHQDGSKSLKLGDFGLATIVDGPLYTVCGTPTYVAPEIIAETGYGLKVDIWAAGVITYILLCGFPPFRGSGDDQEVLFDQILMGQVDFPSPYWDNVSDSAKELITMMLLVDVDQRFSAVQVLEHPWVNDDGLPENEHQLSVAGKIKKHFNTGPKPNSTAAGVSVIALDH
Test: DCLK1 mobility shift assay (gel shift assay)
Type: biochemical
Settings: 30 nM recombinant DCLK1, 100 μM ATP, 1 μM FAM-labeled peptide substrate, two hours at room temperature, 8-point dose-response
Experimental: The DNA construct consisting of N-terminally 6-His tagged human DCLK1 residues G351-H689 was prepared. Thus prepared plasmid was co-transformed with lambda phosphatase under chloramphenicol selection into BL21(DE3) E. coli cells.
Protein expression was induced from the DCLK1 plasmid with 0.6 mM IPTG and expression was allowed to continue for about 10 hours at a temperature of 18° C. Cells was harvested by centrifugation and resuspended in Lysis buffer with protease inhibitors (1 mM Benzamidine and 1 mM PMSF). Lysis was performed by passing 3 times through a homogenizer. Lysate was centrifuged at 20K for 1 hour at a temperature of 4° C. and the supernatant was filtered through a 0.2 micron membrane. Protein was loaded on nickel (Ni)-NTA resin, washed with Wash buffers, and eluted with 300 mM imidazole buffer. […]
DCLK1 kinase activity was measured in vitro using an electrophoretic mobility shift assay. […] Substrate and product peptides present in each sample were electrophoretically separated and detected using 12-channel LabChip3000 microfluidic capillary electrophoresis instrument (Caliper Life Sciences, Waltham Mass., USA). The change in the relative fluorescence intensities of substrate and product peaks (reflecting enzyme activity) was measured. Capillary electrophoregrams were analyzed using HTS Well Analyzer software (Caliper Life Sciences, Waltham Mass., USA).

Row | SMILES | IC50 against DCLK1 compared with the positive control (FIG. 2)
1 | COc1cc(N2CCN(C)CC2)ccc1Nc1ncc2c(n1)N(C)c1ccccc1C(=O)N2CC(F)(F)F [Compound 2, 2-((2-methoxy-4-(4-methylpiperazin-1-yl)phenyl)amino)-11-methyl-5-(2,2,2-trifluoroethyl)-5,11-dihydro-6H-benzo[e]pyrimido[5,4-b][1,4]diazepin-6-one] | substantially decreased from the IC50 value of the positive control
2 | COc1cc(C(=O)NC2CCN(C)CC2)ccc1Nc1ncc2c(n1)N(C)c1ccccc1C(=O)N2CC(F)(F)F [Compound 8, 3-methoxy-4-((11-methyl-6-oxo-5-(2,2,2-trifluoroethyl)-6,11-dihydro-5H-benzo[e]pyrimido[5,4-b][1,4]diazepin-2-yl)amino)-N-(1-methylpiperidin-4-yl)benzamide] | substantially decreased from the IC50 value of the positive control
